Each structure is given as a SMILES string.

For one assay, the target named is human P2X3 receptor (Homo sapiens (Human), UniProt P56373). Description: Evaluation of human P2X3 receptor inhibitory activity (Fluo-3 calcium fluorescence, FDSS 3000, ATP stimulation).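 Also: stimulus was 50 nM ATP with fluorescence followed for 3 min, and the response per well was peak post-ATP fluorescence divided by the reading at measurement start.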 It is filed as cell-based. Particulars: C6BU-1 cells stably expressing human P2X3 receptor.
human P2X3 receptor, sequence (P56373 whole entry): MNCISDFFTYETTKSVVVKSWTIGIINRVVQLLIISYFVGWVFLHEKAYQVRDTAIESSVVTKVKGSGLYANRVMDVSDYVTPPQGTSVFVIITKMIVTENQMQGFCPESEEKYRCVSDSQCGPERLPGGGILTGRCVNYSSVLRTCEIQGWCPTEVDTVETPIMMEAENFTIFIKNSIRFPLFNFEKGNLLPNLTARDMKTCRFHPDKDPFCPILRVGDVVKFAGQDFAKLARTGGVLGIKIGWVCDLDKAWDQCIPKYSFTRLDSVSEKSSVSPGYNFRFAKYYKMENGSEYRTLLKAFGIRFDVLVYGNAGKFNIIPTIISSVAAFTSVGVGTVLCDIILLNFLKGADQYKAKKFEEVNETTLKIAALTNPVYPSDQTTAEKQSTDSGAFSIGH
What is called IC50 is the concentration at which inhibition is half-maximal. As to `C[C@@H](Cn1c(=O)[nH]/c(=N\c2ccc(OCCO)cc2)n(Cc2ccc(Cl)cc2)c1=O)C(=O)O` [Compound I-0733], the concentration for half-maximal inhibition (IC50) is 287 nM.

Take `C[C@H](C(=O)O)[C@@H](C)n1c(=O)[nH]/c(=N\c2ccc(OCC3CC3)cc2)n(Cc2ccc(Cl)cc2)c1=O` [Compound I-1344]: the IC50 turned out to be 33 nM.

For the molecule `COc1cc(/N=c2\[nH]c(=O)n(CC(C)(C)C(=O)O)c(=O)n2Cc2ccc(Cl)cc2)ccc1OC(C)C` [Compound I-1265], the IC50 amounted to 22 nM.

Consider `Cc1ccc(Cn2c(=O)n(CCC(=O)O)c(=O)[nH]/c2=N\c2ccc(OC(C)C)c(C3CC3)c2)cc1` [Compound I-1303], for which the 50% inhibitory concentration (IC50) was 66 nM.

As to `CCCc1ccc(/N=c2\[nH]c(=O)n(CCC(=O)O)c(=O)n2Cc2ccc(C)cc2)cc1C` [Compound I-1223], the IC50 is 297 nM.

Regarding `CCCc1ccc(/N=c2\[nH]c(=O)n(C[C@H](C)C(=O)OC)c(=O)n2Cc2ccc(Cl)cc2)cc1C` [Compound I-1211], the IC50 amounted to 30 nM.

On to `COC(=O)[C@@H](C)Cn1c(=O)[nH]/c(=N\c2ccc(N3CCCCCC3)cc2)n(Cc2ccc(C)cc2)c1=O` [Compound I-1234], for which the half-maximal inhibitory concentration (IC50) stood at 230 nM.

Take `CNC(=O)Cn1c(=O)[nH]/c(=N\c2ccc(Oc3ccc(C)nc3)cc2)n(Cc2ccc(Cl)cc2)c1=O` [Compound I-1945]: the IC50 was 8 nM.

Turning to `COC(=O)[C@@H](C)Cn1c(=O)[nH]/c(=N\c2ccc(CCO)cc2)n(Cc2ccc(Cl)cc2)c1=O` [Compound I-0657], the IC50 was 471 nM.

Still in this assay, the particulars now being: C6BU-1 cells stably expressing human P2X3 receptor, Fluo-3 fluorescence, FDSS 3000.
`CC(=O)NCCCn1c(=O)[nH]/c(=N\c2ccc(O[C@H](C)C(F)(F)F)cc2)n(Cc2ccc(Cl)cc2)c1=O` [Compound I-1615]: the IC50 came to 12 nM.

On to `COC(=O)[C@@H](C)Cn1c(=O)[nH]/c(=N\c2ccc(CC(C)C)c(C)c2)n(Cc2ccc(C)cc2)c1=O` [Compound I-1043], for which the IC50 was found to be 10 nM.

As to `CCCc1cc2cc(/N=c3\[nH]c(=O)n([C@@H](C)[C@@H](C)C(=O)OC)c(=O)n3Cc3ccc(Cl)cc3)ccc2o1` [Compound I-1817], the IC50 came to 52 nM.

For `Cc1ccc(Cn2c(=O)n(C[C@H](C)C(=O)O)c(=O)[nH]/c2=N\c2ccc(OC(C)C)c(O)c2)cc1` [Compound I-1134], the IC50 was 35 nM.

For the molecule `CC[C@@H](C)Oc1ccc(/N=c2\[nH]c(=O)n([C@H](C)CC(=O)O)c(=O)n2Cc2ccc(C)cc2)cc1C` [Compound I-0937], the half-maximal inhibitory concentration (IC50) turned out to be 22 nM.

On to `CCc1oc2ccc(/N=c3\[nH]c(=O)n(CC(=O)NCCO)c(=O)n3Cc3ccc(Cl)cc3)cc2c1C` [Compound I-1658], for which the IC50 turned out to be 6 nM.

For the molecule `CCc1nc2ccc(/N=c3\[nH]c(=O)n(CCCC(=O)O)c(=O)n3Cc3ccc(Cl)cc3)cc2s1` [Compound I-1705], the IC50 stood at 14 nM.

`CCOc1ccc(/N=c2\[nH]c(=O)n([C@@H](C)[C@@H](C)C(=O)OC)c(=O)n2Cc2ccc(Cl)cc2)cc1Cl` [Compound I-0916]: the IC50 is 19 nM.

The assay is the same for the next values; noted with them: human P2X3 receptor, Test Example 1.
Turning to `O=C(O)c1cncc(Oc2ccc(/N=c3\[nH]c(=O)n(C4CC4)c(=O)n3Cc3ccc(Cl)cc3)cc2)c1` [Compound I-2331], the half-maximal inhibitory concentration (IC50) is 7 nM.

For `CCOC(=O)Cn1c(=O)[nH]/c(=N\c2ccc(Oc3nc(C)ns3)cc2)n(Cc2ccc(Cl)cc2)c1=O` [Compound I-2570], the 50% inhibitory concentration (IC50) worked out at 5 nM.

As for `CC(CO)(CO)Cn1c(=O)[nH]/c(=N\c2ccc(Oc3nccs3)cc2)n(Cc2ccc(F)cc2)c1=O` [Compound I-2508], the IC50 came out at 13 nM.

Turning to `CCn1c(=O)[nH]/c(=N\c2ccc(Oc3nc(C(=O)O)cs3)cc2)n(Cc2ccc(F)cc2)c1=O` [Compound I-2568], the IC50 turned out to be 87 nM.

Turning to `CCn1c(=O)[nH]/c(=N\c2ccc(Oc3ccnc(C(N)=O)c3)cc2)n(Cc2ccc(F)cc2)c1=O` [Compound I-2361], the IC50 is 15 nM.

On to `Cn1c(=O)[nH]/c(=N\c2ccc(Oc3ccc(C(N)=O)nn3)cc2)n(Cc2ccc(Cl)cc2)c1=O` [Compound I-2379], for which the half-maximal inhibitory concentration (IC50) is 9 nM.

For `CC(C)(C)OC(=O)NCCn1c(=O)[nH]/c(=N\c2ccc(Oc3ccon3)cc2)n(Cc2ccc(Cl)cc2)c1=O` [Compound I-2522], the IC50 turned out to be 11 nM.

The values above are taken from US9718790B2, “Triazine derivative and pharmaceutical composition having an analgesic activity comprising the same” (SHIONOGI & CO., LTD., priority 2010, dated 2017).
